The text below walks through data of ChEMBL document CHEMBL1151516, “Inhibition of HSV-1 protease by benzoxazinones” (Bioorg Med Chem Lett, 1996).

For one series, the target named is T1, Capsid scaffolding protein (Herpes simplex virus (type 1 / strain 17), UniProt P10210).
T1 sequence (P10210 whole entry): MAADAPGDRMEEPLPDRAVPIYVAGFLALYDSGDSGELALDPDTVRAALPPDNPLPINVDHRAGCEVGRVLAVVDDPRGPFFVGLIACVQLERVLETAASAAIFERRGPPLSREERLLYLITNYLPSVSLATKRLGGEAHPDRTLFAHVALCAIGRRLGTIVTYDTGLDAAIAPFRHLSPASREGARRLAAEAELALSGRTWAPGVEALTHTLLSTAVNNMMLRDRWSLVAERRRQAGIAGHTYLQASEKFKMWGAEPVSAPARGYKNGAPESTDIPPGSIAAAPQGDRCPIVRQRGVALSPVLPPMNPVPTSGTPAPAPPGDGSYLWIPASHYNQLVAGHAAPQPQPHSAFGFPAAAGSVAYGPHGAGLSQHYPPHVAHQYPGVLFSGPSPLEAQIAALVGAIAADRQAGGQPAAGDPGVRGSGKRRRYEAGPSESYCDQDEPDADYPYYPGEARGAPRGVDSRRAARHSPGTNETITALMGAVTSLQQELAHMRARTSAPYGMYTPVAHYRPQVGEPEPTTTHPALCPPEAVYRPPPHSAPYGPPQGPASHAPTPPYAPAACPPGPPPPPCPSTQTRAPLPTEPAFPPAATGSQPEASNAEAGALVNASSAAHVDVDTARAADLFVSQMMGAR
Description: Inhibitory activity against herpes simplex type 1 protease (HSV-1 pr).
One may read the IC50 as the concentration at which inhibition is half-maximal. A higher IC50 goes with weaker potency in that assay. `CC(C)Nc1nc2cc(N)ccc2c(=O)o1` displayed an IC50 of 55 µM. `C[C@H](NC(=O)OCc1ccccc1)c1nc2cc(N)ccc2c(=O)o1`: the IC50 worked out at 150 µM. Still for that read-out and setting: the value for `CCOc1nc2c(Cl)ccc(Cl)c2c(=O)o1` was 1.5 µM; that for `C[C@@H](NC(=O)OCc1ccccc1)c1nc2cccc(F)c2c(=O)o1` was 200 µM; that for `CC(C)Nc1nc2ccccc2c(=O)o1` was 25 µM. On the same count and under the same terms, the value for `CCc1cccc2nc([C@H](C)NC(=O)OCc3ccccc3)oc(=O)c12` was more than 300 µM. `CCOc1nc2ccccc2c(=O)o1` showed an IC50 of 25 µM.

The compound `Cc1cccc2nc([C@H](C)NC(=O)OCc3ccccc3)oc(=O)c12` registered an IC50 of 120 µM.

Turning to `C[C@H](NC(=O)OCc1ccccc1)c1nc2ccccc2c(=O)o1`, it took 50 µM to reach half-maximal inhibition (IC50). Turning to `CCOc1nc2cccc(CC)c2c(=O)o1`, half-maximal inhibition (IC50) required 20 µM. For `CC(NC(=O)OCc1ccccc1)C(=O)Nc1ccc2c(=O)oc([C@H](C)NC(=O)OCc3ccccc3)nc2c1` (stereo partly drawn), the IC50 was determined as 12 µM.

On to `CCOc1nc2cccc(Cl)c2c(=O)o1`, for which the IC50 was 7 µM. Same read-out and setting: the value for `CC(C)Nc1nc2cc(NC(=O)C(CC(N)=O)NC(=O)OCc3ccccc3)ccc2c(=O)o1` (stereo not drawn) was 15 µM. Still for that read-out and setting: the result for `COc1ccc(Oc2nc3ccccc3c(=O)o2)cc1` reads 2.5 µM; that for `C[C@H](NC(=O)OCc1ccccc1)c1nc2cccc(Cl)c2c(=O)o1`, more than 300 µM.

As for `CCCCNc1nc2ccccc2c(=O)o1`, it took 300 µM to reach half-maximal inhibition (IC50). As for `CCOc1nc2cccc(F)c2c(=O)o1`, the midpoint of inhibition, the IC50, lay at 75 µM. On the same count and under the same terms, the result for `CC(C)Nc1nc2cc(NC(=O)C(C)NC(=O)OCc3ccccc3)ccc2c(=O)o1` (stereo not drawn) reads 5 µM; that for `CCOc1nc2cccc(C)c2c(=O)o1`, 15 µM; that for `O=c1oc(Oc2ccccc2)nc2ccccc12`, 10 µM. On the same count and under the same terms, the value for `C=CCOc1nc2ccccc2c(=O)o1` was 15 µM. Still for that read-out and setting: the result for `CC(Nc1nc2ccccc2c(=O)o1)c1ccccc1` (stereo not drawn) reads 60 µM. As to `COC(=O)C(C)Nc1nc2ccccc2c(=O)o1` (stereo not drawn), 25 µM corresponded to half-maximal inhibition (IC50). Still for that read-out and setting: the result for `C[C@H](NC(=O)OCc1ccccc1)c1nc2cccc(F)c2c(=O)o1` reads 50 µM; that for `CC(C)COC(=O)Nc1ccc2c(=O)oc(NC(C)C)nc2c1`, 50 µM. Regarding `O=c1oc(Nc2cccc(F)c2)nc2ccccc12`, the IC50 is more than 300 µM.

System in another series: not listed separately
Description: Half-life in aqueous solution. Format: ADME.
As a reminder, the half-life is how long it takes for the measured level to halve. High values mean slow decline, low ones rapid decline. `CCOc1nc2c(Cl)ccc(Cl)c2c(=O)o1` gave a half-life of 1 h. As for `CC(C)Nc1nc2cc(NC(=O)C(C)NC(=O)OCc3ccccc3)ccc2c(=O)o1` (stereo not drawn), the half-life was 171 h.
